# Article PMC12507958, “Modification of human metallothioneins by garlic organosulfur compounds, allicin and ajoene: direct effect on zinc homeostasis with relevance to immune regulation” (Biometals, 2025)
# Key:
# Format in all cases: binding
# MT2 [1] = target: T1, MT2 (Homo sapiens, UniProt P02795); test: Zn(II) release followed with PAR; adducts by ESI-MS and top-down MS; conditions: 1 uM Zn(II)-loaded MT2, 80 uM ajoene, 100 uM PAR, 50 mM HEPES, 100 mM NaCl, pH 7.4, 25 °C; covalent (Cys within residues 29-53)
# T1 construct: gene MT2A; full-length recombinant, intein/chitin tag (pTYB21) cleaved by DTT, from E. coli BL21(DE3)pLysS; Zn7-loaded (Zn7MT2)
# MT4 = target: T2, MT4 (Homo sapiens, UniProt P47944); test: Zn(II) release followed with PAR at […] nm; conditions: 1 uM Zn(II)-loaded MT, 80 uM allicin, 200 uM PAR, 50 mM HEPES, 100 mM NaCl, pH 7.4, 25 °C; covalent (Cys S-thioallylation)
# T2 construct: full-length recombinant, intein/chitin tag (pTYB21) cleaved by DTT, from E. coli BL21(DE3)pLysS; Zn7-loaded
# MT1a = target: T3, MT1a (Homo sapiens, UniProt P04731); test: Zn(II) release followed with PAR at […] nm; conditions: 1 uM Zn(II)-loaded MT, 80 uM allicin, 200 uM PAR, 50 mM HEPES, 100 mM NaCl, pH 7.4, 25 °C; covalent (Cys S-thioallylation)
# T3 construct: full-length recombinant, intein/chitin tag (pTYB21) cleaved by DTT, from E. coli BL21(DE3)pLysS; Zn7-loaded
# MT2 [2] = target: T1, MT2; test: Zn(II) release followed with PAR; adducts by ESI-MS and top-down MS; conditions: 1 uM Zn(II)-loaded MT2, 80 uM allicin, 100 uM PAR, 50 mM HEPES, 100 mM NaCl, pH 7.4; covalent (S-thioallylation, Cys within residues 19-30)
# MT3 = target: T4, MT3 (Homo sapiens, UniProt P25713); test: Zn(II) release followed with PAR at […] nm; conditions: 1 uM Zn(II)-loaded MT, 80 uM allicin, 200 uM PAR, 50 mM HEPES, 100 mM NaCl, pH 7.4, 25 °C; covalent (Cys S-thioallylation)
# T4 construct: full-length recombinant, intein/chitin tag (pTYB21) cleaved by DTT, from E. coli BL21(DE3)pLysS; Zn7-loaded
# T4 sequence (P25713 whole entry): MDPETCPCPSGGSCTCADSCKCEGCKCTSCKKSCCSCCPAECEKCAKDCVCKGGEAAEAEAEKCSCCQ
# T1 sequence (P02795 whole entry, the tested form may be a part): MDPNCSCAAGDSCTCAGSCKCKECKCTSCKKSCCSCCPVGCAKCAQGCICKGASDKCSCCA
# T2 sequence (P47944 whole entry): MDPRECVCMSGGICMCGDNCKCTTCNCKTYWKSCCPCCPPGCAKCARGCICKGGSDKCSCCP
# T3 sequence (P04731 whole entry): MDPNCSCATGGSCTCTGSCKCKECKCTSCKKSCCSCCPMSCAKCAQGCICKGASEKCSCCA
structure (smiles),measurement,setting,value
C=CCSSC=CC[S+]([O-])CC=C (centres unmarked) [ajoene],Zn(II) mol. eq. dissociated after 60 min,MT2 [1],almost 6
C=CCS[S+]([O-])CC=C (centres unmarked) [allicin],Zn(II) mol. eq. dissociated after 60 min,MT4,2.8 mol. eq.
same,Zn(II) mol. eq. dissociated after 60 min,MT1a,5 mol. eq.
same,Zn(II) mol. eq. dissociated after 1 h,MT2 [2],5.3 mol. eq.
same,Zn(II) mol. eq. dissociated after 60 min,MT3,5.2 mol. eq.
